System: acetylated histone H3 in HeLa cells
Test: Immunofluorescence analysis using acetylated H3 antibody
Format: cell-based
Settings: CTPB alone at 300 μM, compared with untreated cells
Text: FIG. 3. Small molecule HAT activator binds to the CSP and induces hyperacetylation within HeLa cells. (a) X-ray crystal structure of CTPB showing the ball and stick model view of the compound. The color coding of the atoms is as follows: light blue, carbon; white, hydrogen; red, oxygen; grey, fluorine; green, chlorine; dark blue, nitrogen. (b) SEM image of the carbon spheres, adsorbed with CTPB (Panel I). A specific area of the sample was excited with the electron beam of energy suitable for the constituent elements to emit the X-rays of their characteristic wavelength. […] (c)-(d) Top panel represents the confocal image of HeLa cells, Bottom panel represents intensity profile of the image arising from Hoechst stained nuclei shown as blue peak, Fluorescence intensity of CSP is shown as light green peak, Fluorescence intensity from Alexa 488 fluor antibody is shown as dark green peak. HeLa cells, (3c, I) untreated, stained with Hoechst dye; (3c, II) treated with CSP, where carbon sphere fluorescence always overlap with the nuclear region, showing that the nanosphere localized within the nucleus specifically; (3c, III) untreated, probed with antibody against acetylated histone H3; (3c, IV) treated with HAT activator CTPB (300 μM), probed with antibody against acetylated histone H3. […]

CCOc1ccccc1C(=O)Nc1ccc(Cl)c(C(F)(F)F)c1 [CTPB, 4-chloro-3-trifluoromethylphenyl-2-ethoxybenzamide]
acetylation level (acetylated H3 immunofluorescence), result in words: did not show any difference
